Assay results: patent US9382256B2, “Formulation of Syk inhibitors” (Gilead Connecticut, Inc., priority 2013, dated 2016)
Counter-ions that a name gives are not always drawn.

Experiments:
[1] = Physical stability of dry granulation formulation during processing and storage (XRPD); format: physicochemical; settings: intragranular blend, milled granules, final blend (FIG. 4)
[2] = Intrinsic dissolution rate, rotating disk apparatus; format: physicochemical; settings: 100 rpm, 37±0.5° C., 500 mL
Procedure: Intrinsic dissolution measurements were conducted using a rotating disk apparatus. Disks of Compound 1, Compound 2 and Compound 3 were separately prepared by directly compressing 100 mg of a powder of the respectively compounds in a die at a pressure of 2500 psi for 2 minutes using a hydraulic press (Carver Press, Fred Carver, NJ, USA). The exposed surface area for the resulting disks was 0.5 cm^2. A USP dissolution apparatus maintained at 37±0.5° C. was used for the dissolution study. Each dissolution vessel contained 500 mL of aqueous dissolution medium of 0.05 N HCl or pH 6.8 20 mM phosphate buffer with 1% cetyltrimetrylammonium bromide (CTAB). The disk holder (die) was half-immersed into the dissolution medium and rotated at 100 rpm. Samples were withdrawn at specified time intervals and the amount of compound dissolved was determined by HPLC.
The amount of compound dissolved at each time point was plotted versus time and the observed dissolution rate (mg/min) was obtained from the slope of the plot. The observed dissolution rate was divided by the surface area of the compound disk (0.5 cm^2) to obtain the intrinsic dissolution rate.

form change by XRPD during processing [1]	Intrinsic dissolution rate in pH 1.3 0.05N HCl with 0.9% NaCl [2]	SMILES
no form change was observed		c1cn2cc(-c3ccc4cn[nH]c4c3)nc(Nc3ccc(N4CCOCC4)cc3)c2n1 [bis-mesylate salt of Formula IA]
	0.00046 mg/min/cm^2	c1cn2cc(-c3ccc4cn[nH]c4c3)nc(Nc3ccc(N4CCOCC4)cc3)c2n1 [Compound 1]
